We go through 4 molecules from PMC11378297, “Discovery and Profiling of New Multimodal Phenylglycinamide Derivatives as Potent Antiseizure and Antinociceptive Drug Candidates” (ACS Chemical Neuroscience, 2024).

One data set has as its system body temperature, mice. Description: capsaicin-induced hypothermia test / rectal temperature. The data set is classed as in vivo, mouse. The method, then:
In this study, we used the capsaicin-induced hypothermia model in mice to evaluate the effect of eutomers (R)-31, (R)-32, and (R)-33 on body temperature and to provide more data related to their on-target activity (i.e., antagonism of TRPV1) (Figure S5A–D). Capsaicin given i.p. at a dose of 5 mg/kg produced a marked decrease in rectal temperature at 15 min post injection (p < 0.0001). The temperature returned to normal values within 30–60 min after capsaicin injection. […] None of the tested compounds reversed the capsaicin-induced hypothermia.
The changes in body temperature in the capsaicin-induced hypothermia model were evaluated as described previously. Eutomers (R)-31, (R)-32, and (R)-33 were suspended in a 1% Tween 80 and administered i.p. 15 min before injection of capsaicin (5 mg/kg, i.p.). The corresponding vehicles (1% DMSO or 1% Tween 80) were given to the control animals. Using an electronic thermometer (ThermoWorks, Alpine, Utah, USA), changes in the mouse’s rectal temperature were recorded by inserting the rectal probe approximately 2 cm into the mouse’s rectum. After −15, 0, 15, 30, 60, 90, 120, and 180 min, the measurements were collected. Subsequently, the variations in rectal temperature between the baseline ([…] for the groups receiving compounds and BCTC in conjunction with the vehicle, or […] for the groups receiving the vehicle, compounds, and BCTC in combination with the capsaicin) and the corresponding time point ΔT (°C) were computed and examined.
Figure S5. Acute effects of BCTC (A), (R)-31 (B), (R)-32 (C), and (R)-33 (D) on rectal temperature in the capsaicin-induced test in mice. Capsaicin (CPS) or vehicle (1% DMSO) were injected i.p. at 0 min, as indicated by the arrows.
BCTC, (R)-31, (R)-32, and (R)-33 were suspended in 1% Tween 80 and administered i.p. 15 min before CPS or vehicle injection. The temperature was measured at -15, 0, 15, 30, 60, 90, 120, and 180 min. Since body temperature returned to control values 60 min after CPS injection, subsequent measurements are not shown.
Data are presented as the mean differences (ΔT) in rectal temperature from 0 to -15 min (time point 0 min), from 15 to 0 min (time point 15 min), from 30 to 0 min (time point 30 min), and from 60 to 0 min (time point 60 min); n = 6–8 animals/group. Statistical significance was evaluated using one-way ANOVA with Tukey’s post hoc test: […]
(1 picture or pasted object on this page, not shown here)

The test system of data set [1] is maximal electroshock (MES) seizures, mice. Conditions: reference ASMs, i.p., pretreatment time 0.5 h (LCS, VPA) or 1.0 h (LEV, CBD), literature or own experiments; cited from earlier work.
Data set [2] concerns Cav1.2 (dihydropyridine site). In words: Cav1.2 (dihydropyridine site, antagonist radioligand) binding. The conditions noted are these: 100 µM, rat cerebral cortex. The method, then:
(§1) Further in vitro functional studies confirmed TRPV1 antagonist activity for (R)-31–(R)-33.
(§2) Table S2. In vitro TRPV1 channel antagonist activity for compounds 3–12 (series A), 21–24 (series B) in […]
(§3) Cmpd % Inhibition of control Cmpd % Inhibition of control agonist responsea agonist responsea
(§4) *Source: human recombinant CHO cells. a Results showing activity higher than 50% are considered to represent significant […]
(§5) around the control level. Assays were performed commercially in Eurofins Laboratories (Poitiers, France).
(§6) Binding studies Source % Inhibition of control specific binding […]
(§7) Na+ channel (site 2) Rat cerebral 94.9 (100)
(§8) Cav1.2 (dihydropyridine Rat cerebral 58.0 (100) site, antagonist radioligand) cortex
(§9) Functional studies Source % Inhibition of control specific binding […]
(§10) (antagonist effect) CHO cells
(§11) (agonist effect) CHO cells
(§12) Table S9. Radioligand binding and functional assays.
(§13) Cav1.2 (L-type) (h) calcium ion channel cell-based antagonist calcium flux assay TRPV1 (VR1) (h) (antagonist effect)
(§14) TRPA1 (h) transient potential ion channel cell based antagonist calcium flux assay TRPM8 (h) (antagonist effect)
(§15) Cav1.2 (L-type) (dihydropyridine site, antagonist radioligand) […]
(§16) Assays were performed commercially in Eurofins Laboratories (Poitiers, France) or Eurofins Panlabs Discovery Services Taiwan, Ltd. (New Taipei City, Taiwan).

The target of another data set is T1, CB1 (h) (Homo sapiens, UniProt P21554).
T1 construct: host or cells: CHO cells
In words: CB1 (h) (agonist effect). Format: cell-based. Conditions: human recombinant CHO cells, read-out: % Inhibition of control specific binding (functional study, agonist effect). The method, then: as §1, §2, §3, §4, §5, §6, §7, §8, §9, §10, §11, §12, §13, §14, §15, §16

Another data set deals with T2, TRPV1 (VR1) (h) (Homo sapiens, UniProt Q8NER1).
T2 construct: host or cells: CHO cells
Description: TRPV1 (VR1) (h) (antagonist effect). Format: cell-based. Conditions: 100 µM, human recombinant CHO cells; read-out: % Inhibition of control specific binding (functional study, antagonist effect). The method, then: as §1
(§17) Using previously described testing methodologies, binding/functional tests were conducted on a commercial basis at Eurofins Laboratories (Poitiers, France) and Eurofins Panlabs Discovery Services Taiwan, Ltd. (New Taipei City, Taiwan); see Table S9 for more information.
(§18) Table S9. Radioligand binding and functional assays. […]
TRPV1 (VR1) (h) (antagonist effect) […]
(§19) Assays were performed commercially in Eurofins Laboratories (Poitiers, France) or Eurofins Panlabs Discovery Services
(§20) Taiwan, Ltd. (New Taipei City, Taiwan).

A further data set concerns Na+ channel (site 2). Description: Na+ channel (site 2) radioligand binding. Conditions: 100 µM, rat cerebral cortex. The method, then:
The current body of literature consistently reports that both sodium (Navx) and Cav1.2 calcium ion channels can be involved in the pathogenesis of epilepsy[67]−[69] and neuropathic pain.[70]−[73] […] Therefore, we performed binding and functional studies toward sodium (site 2) and calcium Cav1.2 channels at concentrations of 10 μM for (R)-31−(R)-33.
as §17, §18, §19, §20

The test system of data set [3] is 6 Hz (32 mA) seizures, mice. Conditions: reference ASMs, i.p., pretreatment time 0.5 h (LCS, VPA) or 1.0 h (LEV, CBD); cited from earlier work.
Data set [4] concerns 6 Hz (44 mA) seizures, mice. The conditions noted are these: reference ASMs, i.p., pretreatment time 0.5 h (LCS, VPA) or 1.0 h (LEV, CBD); cited from earlier work.
Data set [5] is described as follows: PAMPA (Precoated PAMPA Plate System Gentest) passive permeability. The data set is classed as in vitro ADME. The conditions noted are these: passive blood–brain barrier permeability model.

T2 sequence (Q8NER1 whole entry): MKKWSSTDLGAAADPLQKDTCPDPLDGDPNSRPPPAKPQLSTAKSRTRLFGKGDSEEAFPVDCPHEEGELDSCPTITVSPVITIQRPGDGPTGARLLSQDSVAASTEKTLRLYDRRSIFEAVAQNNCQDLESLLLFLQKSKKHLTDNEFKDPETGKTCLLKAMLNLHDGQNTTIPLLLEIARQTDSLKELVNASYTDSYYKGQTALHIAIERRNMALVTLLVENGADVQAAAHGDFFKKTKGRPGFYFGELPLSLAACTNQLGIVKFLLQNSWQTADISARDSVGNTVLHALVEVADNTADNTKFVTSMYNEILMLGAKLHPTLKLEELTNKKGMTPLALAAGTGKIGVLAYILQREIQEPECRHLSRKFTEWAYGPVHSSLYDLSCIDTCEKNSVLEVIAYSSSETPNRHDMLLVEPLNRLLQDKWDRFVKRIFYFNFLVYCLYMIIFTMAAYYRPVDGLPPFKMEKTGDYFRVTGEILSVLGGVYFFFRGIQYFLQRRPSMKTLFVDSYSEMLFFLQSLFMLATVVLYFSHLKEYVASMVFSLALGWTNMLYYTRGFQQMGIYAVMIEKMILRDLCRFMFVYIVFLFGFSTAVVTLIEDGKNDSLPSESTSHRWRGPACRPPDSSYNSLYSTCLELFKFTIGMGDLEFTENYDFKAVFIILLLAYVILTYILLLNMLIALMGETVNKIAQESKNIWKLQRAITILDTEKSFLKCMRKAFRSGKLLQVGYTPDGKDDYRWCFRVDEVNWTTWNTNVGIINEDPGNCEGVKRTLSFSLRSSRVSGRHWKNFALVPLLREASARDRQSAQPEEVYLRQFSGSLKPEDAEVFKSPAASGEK
T1 sequence (P21554 whole entry): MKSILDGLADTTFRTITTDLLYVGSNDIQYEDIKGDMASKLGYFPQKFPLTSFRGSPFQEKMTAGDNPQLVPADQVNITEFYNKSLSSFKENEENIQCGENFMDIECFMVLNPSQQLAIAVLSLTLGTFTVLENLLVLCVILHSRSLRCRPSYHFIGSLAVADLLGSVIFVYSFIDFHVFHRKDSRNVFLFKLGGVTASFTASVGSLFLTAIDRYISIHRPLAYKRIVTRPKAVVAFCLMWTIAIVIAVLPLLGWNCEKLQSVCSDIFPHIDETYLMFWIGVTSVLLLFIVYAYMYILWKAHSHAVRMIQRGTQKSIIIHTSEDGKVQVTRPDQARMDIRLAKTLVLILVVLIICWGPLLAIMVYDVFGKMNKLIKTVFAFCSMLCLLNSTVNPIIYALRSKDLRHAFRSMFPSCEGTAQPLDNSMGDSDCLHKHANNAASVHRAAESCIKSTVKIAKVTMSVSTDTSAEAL

In the case of `CC(C)(C)c1ccc(NC(=O)N2CCN(c3ncccc3Cl)CC2)cc1` [BCTC, reference compound], the “effect on capsaicin-induced hypothermia” value in the data set with body temperature, mice (20 mg/kg with capsaicin 5 mg/kg i.p., p < 0.0001 at 15 and 30 min) was “alleviated the capsaicin-induced hypothermia”. In addition, the “effect on body temperature, administered alone” value in the data set with body temperature, mice (20 mg/kg, 15 min after injection, p < 0.05) is listed as “caused a significant increase in body temperature”.
Usually inhibition stands for the drop in the measured response relative to a control, in per cent. As for `C=C(C)[C@@H]1CCC(C)=C[C@H]1c1c(O)cc(CCCCC)cc1O` [CBD, cannabidiol], the “ED50 MES” value in [1] is 80.0 mg/kg. Also, the “% inhibition of control specific binding” value is on record as 58.0% in data set [2] and 94.9% in the data set on Na+ channel (site 2). Besides, the inhibition at 100 µM at CB1 (h) worked out at 103%; on TRPV1 (VR1) (h), 47.8%.
On to `COC[C@@H](NC(C)=O)C(=O)NCc1ccccc1` [LCS, lacosamide], for which the “ED50 6 Hz (32 mA)” value in data set [3] is reported as 5.3 mg/kg. In addition, in data set [1], the “ED50 MES” value was 9.2 mg/kg. For the same molecule, the “ED50 6 Hz (44 mA)” value in [4] is given as 6.9 mg/kg.
With `Cn1c(=O)c2c(ncn2C)n(C)c1=O` [caffeine, reference compound], the “permeability coefficient (Pe)” value in data set [5] is 3.46 × 10^–6 cm/s.
